Results: patent US20020004518A1, “Method of treating disorders related to protease-activated receptors-induced cell activation” (priority 2000, published 2002)

How the values were obtained:
PARs = assay: Inhibition of platelet aggregation induced by PARs (thrombin-triggered, turbidimetric); type: cell-based
Procedure: A suitable in vitro inhibition assay can be used to preliminarily evaluate a fused pyrazolyl compound's ability to inhibit cell activation induced by PARs, which are pre-activated by thrombin. For example, a platelet suspension in Tyrode's solution can be prepared and incubated with a compound to be tested, thrombin added to trigger platelet aggregation, and the aggregation measured turbidimetrically with a light-transmission aggremometer. In vivo screening can be performed by following procedures well known in the art.
In vitro inhibitory activity of the fused pyrazolyl compounds was preliminarily evaluated by the following method: A platelet suspension in a Tyrode's solution was prepared according to a procedure described by Wu et al., Br. J Pharm., 1995, 116: 1973-1978. The Tyrode's solution had the following composition (mM): NaCl (136.8), KCl (2.8), NaHCO3 (11.9), MgCl2 (1.1), NaH2PO4 (0.33), CaCl2 (1.0), and glucose (11.2). The platelet number in the platelet suspension was adjusted to 4.5×10^8 platelets/mL with the aid of a Coulter Counter (Model ZM). […] Platelet aggregation was measured turbidimetrically with a light-transmission aggremometer. The extent of platelet aggregation was determined at 5 minutes after the addition of thrombin. The percentage of aggregation was calculated by the method described in Teng et al., Biochem. Biophys. […]

[1] = tested on: platelet activating factors other than PARs; assay: Effect on platelet activating factors other than PARs; type: cell-based; details: selectivity versus other platelet activators

Compound	inhibitory activity on platelet aggregation (PARs; platelet suspension in Tyrode's solution, 3 min preincubation at 37° C., thrombin added, aggregation read at 5 minutes)	activity relative to several other tested compounds, e.g. 1-benzyl-3-(4′-ethoxycarbonyl)phenyl-indazole (PARs; thrombin-induced platelet aggregation, fold versus other tested compounds)	effect on platelet activating factors other than PARs [1]	melting point [°C]
CCN(CC)Cc1ccc(-c2nn(Cc3ccccc3)c3ccccc23)o1 [Example 17, 1-benzyl-3-(5′-diethylaminomethyl-2′-furyl)indazole]	much higher activity			
CCOC(=O)c1cccc(-c2nn(Cc3ccccc3)c3ccccc23)c1 [Example 19, 1-benzyl-3-(3′-ethoxycarbonylphenyl)indazole]		at least 10 times	little or no effect	85 to 86
O=C(O)c1ccc(-c2nn(Cc3ccccc3)c3ccccc23)cc1 [Example 20, 1-benzyl-3-(4′-hydroxycarbonylphenyl)indazole]				205 to 207
O=C(O)c1cccc(-c2nn(Cc3ccccc3)c3ccccc23)c1 [Example 21, 1-benzyl-3-(3′-hydroxycarbonylphenyl)indazole]				190 to 192
OCc1ccc(-c2nn(Cc3ccccc3)c3ccccc23)cc1 [Example 22, 1-benzyl-3-(4′-hydroxymethylphenyl)indazole]				110 to 112
